pIC50: −log10 of the molar value.

For data set [1], the target named is T1, tissue transglutaminase (Homo sapiens, UniProt P21980).
T1 sequence (P21980 1-687): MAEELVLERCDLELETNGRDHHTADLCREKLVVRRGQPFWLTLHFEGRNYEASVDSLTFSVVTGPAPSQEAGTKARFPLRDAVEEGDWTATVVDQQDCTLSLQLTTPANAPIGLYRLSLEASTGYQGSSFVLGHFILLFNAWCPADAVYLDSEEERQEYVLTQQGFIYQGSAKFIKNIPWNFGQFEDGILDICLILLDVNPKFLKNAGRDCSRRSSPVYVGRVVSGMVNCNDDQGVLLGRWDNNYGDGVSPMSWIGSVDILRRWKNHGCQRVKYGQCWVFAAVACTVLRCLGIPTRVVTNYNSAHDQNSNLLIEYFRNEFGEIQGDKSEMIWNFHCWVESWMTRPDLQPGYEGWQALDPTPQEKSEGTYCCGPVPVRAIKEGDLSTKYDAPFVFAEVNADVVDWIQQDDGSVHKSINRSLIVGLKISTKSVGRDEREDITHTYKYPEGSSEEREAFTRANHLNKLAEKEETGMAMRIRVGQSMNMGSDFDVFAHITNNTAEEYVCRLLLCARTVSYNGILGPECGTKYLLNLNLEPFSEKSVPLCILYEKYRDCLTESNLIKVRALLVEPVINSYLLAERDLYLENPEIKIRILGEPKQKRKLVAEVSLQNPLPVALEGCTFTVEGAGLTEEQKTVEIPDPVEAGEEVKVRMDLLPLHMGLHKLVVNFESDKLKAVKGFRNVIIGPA
Kind of data set: Isopeptidase assay. In kind it is biochemical. As to conditions: read-out: IC50 against tissue transglutaminase in the isopeptidase assay.

The test system of data set [2] is humans. As to conditions: cited from earlier work.

As usually defined, the pIC50 is the negative decadic logarithm of the IC50, by convention in mol/L. As for `CC(=O)CSc1n(C)c(C)c(C)[n+]1C` [L‐682.777], the pIC50 in data set [1] was around 6.60.

On to `CCC(CC)CNC(=O)Cn1cccc(NC(=O)[C@H](CC/C=C/C(=O)OC)NC(=O)c2cncn2C)c1=O` [ZED1227], for which the Safety and tolerability entry in data set [2] was “safe and well tolerated”.

(Values after publication PMC6973046 (Journal of Thrombosis and Haemostasis, 2019).)
